Laboratory results published in patent publication US6362369B1, “Phthalic acid diamide derivatives fluorine-containing aniline compounds as starting material, agricultural and horticultural insecticides, and a method for application of the insecticides” (Nihon Nohyaku Co., Ltd., priority 1997, dated 2002).

Key:
Format in all cases: in vivo
[1] = test system: common cutworm (Spodoptera Litura); assay: Insecticidal effect on common cutworm (Test Example 2); details: 500 ppm, 25° C.; for Insecticidal effect on common cutworm (Test Example 2), judged grade / Insecticidal effect (Test Example 2), judged from mortality: cabbage leaf dip; for Insecticidal effect on common cutworm (Test Example 2), judged grade: second-instar larvae; for Insecticidal effect on common cutworm (Test Example 2), judged grade / Insecticidal effect, Test Example 2: eight days after inoculation; for Insecticidal effect (Test Example 2), judged from mortality: 8 days after inoculation; for Insecticidal effect, Test Example 2: cabbage leaf immersed
In short: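 After the treated material air-dries, it goes into a dish, second-instar larvae are added, and the dish is closed. Incubation runs at 25° C. On day eight, dead and living larvae are scored, and the calculated mortality is rated on an effect scale.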

[2] = test system: diamondback moth (Plutella xylostella); assay: Insecticidal effect on diamondback moth (Test Example 1); details: for Insecticidal effect on diamondback moth (Test Example 1), judged grade: mortality judged according to the criterion shown in Test Example 1; for Insecticidal effect (Test Example 1), judged from mortality / Insecticidal effect, Test Example 1: diamondback moth; for Insecticidal effect (Test Example 1), judged from mortality: judged by the criterion of Test Example 1
In short: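 Triplicate groups of 10 insects: eggs laid on Chinese cabbage seedling by adults, seedling immersed then air-dried, kept at 25° C. Day-6 hatch counts gave mortality, rated by criterion.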

[3] = test system: rice leafroller (Cnaphalocrocis medinalis); assay: Insecticidal effect on rice leafroller (Test Example 3); details: 500 ppm, 25° C., humidity 70%; for Insecticidal effect on rice leafroller (Test Example 3), judged grade / Insecticidal effect (Test Example 3), judged from mortality: rice lamina dip; for Insecticidal effect on rice leafroller (Test Example 3), judged grade: third-instar larvae; for Insecticidal effect on rice leafroller (Test Example 3), judged grade / Insecticidal effect, Test Example 3: four days after inoculation; for Insecticidal effect (Test Example 3), judged from mortality: 4 days after inoculation; for Insecticidal effect, Test Example 3: rice lamina immersed
In short: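 Insecticidal effect is judged by a predefined criterion from dead/alive counts four days after infesting air-dried lamina with third-instar larvae, kept on moistened filter paper at 25° C, 70% humidity.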

[4] = second-instar larvae of common cutworm
[5] = third-instar larvae of rice leafroller
[6] = common cutworm second-instar larvae
[7] = mortality judged by criterion of Test Example 1
[8] = rice leafroller third-instar larvae
[9] = judged by the mortality criterion of Test Example 1

Cc1ccc(F)cc1NC(=O)c1cccc([N+](=O)[O-])c1C(=O)NC(C)C [compound 676]
Insecticidal effect on common cutworm (Test Example 2), judged grade [1]: C (89-80)
Insecticidal effect on diamondback moth (Test Example 1), judged grade [2]: A (100)
Insecticidal effect on rice leafroller (Test Example 3), judged grade [3]: A (100)

CC(C)(C)NC(=O)c1c(I)cccc1C(=O)Nc1ccc(C(F)(F)C(F)(F)C(F)(F)F)cc1F [compound 1504]
Insecticidal effect (Test Example 2), judged from mortality [1, 4]: A (100)
Insecticidal effect (Test Example 1), judged from mortality [2]: A (100)
Insecticidal effect (Test Example 3), judged from mortality [3, 5]: A (100)

CCN(CC)C(=O)c1c(Cl)cccc1C(=O)Nc1ccc(C(F)(F)C(F)(F)F)cc1Cl [compound 1540]
Insecticidal effect (Test Example 2), judged from mortality [1, 4]: A (100)
Insecticidal effect (Test Example 1), judged from mortality [2]: A (100)
Insecticidal effect (Test Example 3), judged from mortality [3, 5]: A (100)

CCC(COC)NC(=O)c1c(I)cccc1C(=O)Nc1ccc(C(F)(F)C(F)(F)F)cc1C (stereo not drawn) [compound 1013]
Insecticidal effect, Test Example 2 [1, 6]: A (100)
Insecticidal effect, Test Example 1 [2, 7]: A (100)
Insecticidal effect, Test Example 3 [3, 8]: A (100)

Cc1cc(OC(F)(F)C(F)(Cl)Cl)ccc1NC(=O)c1cccc([N+](=O)[O-])c1C(=O)NC(C)C [compound 715]
Insecticidal effect on common cutworm (Test Example 2), judged grade [1]: A (100)
Insecticidal effect on diamondback moth (Test Example 1), judged grade [2]: A (100)
Insecticidal effect on rice leafroller (Test Example 3), judged grade [3]: A (100)

CCN(CC)C(=O)c1c(I)cccc1C(=O)Nc1ccc(C(F)(F)C(F)(F)F)cc1C [compound 1561]
Insecticidal effect (Test Example 2), judged from mortality [1, 4]: A (100)
Insecticidal effect (Test Example 1), judged from mortality [2]: A (100)
Insecticidal effect (Test Example 3), judged from mortality [3, 5]: A (100)

Cc1cc(C(F)(F)C(F)(F)F)ccc1NC(=O)c1ccc(I)cc1C(=O)NC(C)C [compound 1202]
Insecticidal effect, Test Example 2 [1, 6]: A (100)
Insecticidal effect, Test Example 1 [2, 7]: A (100)
Insecticidal effect, Test Example 3 [3, 8]: A (100)

CCN(CC)C(=O)c1c(F)cccc1C(=O)Nc1ccc(C(F)(C(F)(F)F)C(F)(F)F)cc1C [compound 1526]
Insecticidal effect (Test Example 2), judged from mortality [1, 4]: A (100)
Insecticidal effect (Test Example 1), judged from mortality [2]: A (100)
Insecticidal effect (Test Example 3), judged from mortality [3, 5]: A (100)

Cc1cc(C(F)(F)C(F)(F)C(F)(F)F)ccc1NC(=O)c1cccc(Cl)c1C(=O)NC(C)C [compound 130]
Insecticidal effect, Test Example 2 [1, 4]: A (100)
Insecticidal effect, Test Example 1 [2, 9]: A (100)
Insecticidal effect, Test Example 3 [3, 5]: A (100)

Cc1cc(C(F)(F)C(F)(F)F)ccc1NC(=O)c1cccc(Cl)c1C(=O)NC(C)(C)CO [compound 1317]
Insecticidal effect, Test Example 2 [1, 6]: C (89-80)
Insecticidal effect, Test Example 1 [2, 7]: A (100)
Insecticidal effect, Test Example 3 [3, 8]: A (100)

Cc1c(NC(=O)c2cccc(Br)c2C(=O)NC(C)C)ccc(OC(F)F)c1Cl [compound 294]
Insecticidal effect, Test Example 2 [1, 4]: A (100)
Insecticidal effect, Test Example 1 [2, 9]: A (100)
Insecticidal effect, Test Example 3 [3, 5]: A (100)

Cc1ccc(Cl)cc1NC(=O)c1cccc([N+](=O)[O-])c1C(=O)NC(C)(C)C [compound 842]
Insecticidal effect on common cutworm (Test Example 2), judged grade [1]: A (100)
Insecticidal effect on diamondback moth (Test Example 1), judged grade [2]: A (100)
Insecticidal effect on rice leafroller (Test Example 3), judged grade [3]: D (79-50)

Cc1ccc(NC(=O)c2cccc([N+](=O)[O-])c2C(=O)NC(C)C)c(C)c1 [compound 648]
Insecticidal effect on common cutworm (Test Example 2), judged grade [1]: D (79-50)
Insecticidal effect on diamondback moth (Test Example 1), judged grade [2]: A (100)
Insecticidal effect on rice leafroller (Test Example 3), judged grade [3]: A (100)

Cc1cc(Cl)ccc1NC(=O)c1ccc(F)cc1C(=O)NC(C)C [compound 529]
Insecticidal effect on common cutworm (Test Example 2), judged grade [1]: D (79-50)
Insecticidal effect on diamondback moth (Test Example 1), judged grade [2]: A (100)
Insecticidal effect on rice leafroller (Test Example 3), judged grade [3]: A (100)

Cc1cc(C(F)(F)C(F)(F)C(F)(F)C(F)(F)F)ccc1NC(=O)c1c(I)cccc1C(=O)NC(C)C [compound 440]
Insecticidal effect, Test Example 2 [1, 4]: C (89-80)
Insecticidal effect, Test Example 1 [2, 9]: A (100)
Insecticidal effect, Test Example 3 [3, 5]: B (99-90)

Cc1cc(OC(F)(F)C(F)(Br)C(F)(F)F)ccc1NC(=O)c1c(Cl)cccc1C(=O)NC(C)C (stereo not drawn) [compound 243]
Insecticidal effect, Test Example 2 [1, 4]: A (100)
Insecticidal effect, Test Example 1 [2, 9]: A (100)
Insecticidal effect, Test Example 3 [3, 5]: B (99-90)

CCc1cc(C(F)(F)C(F)(F)F)ccc1NC(=O)c1cccc(I)c1C(=O)NC(C)(C)C [compound 1475]
Insecticidal effect (Test Example 2), judged from mortality [1, 4]: A (100)
Insecticidal effect (Test Example 1), judged from mortality [2]: A (100)
Insecticidal effect (Test Example 3), judged from mortality [3, 5]: A (100)

Cc1cc(F)ccc1NC(=O)c1cccc(Br)c1C(=O)NC(C)C [compound 275]
Insecticidal effect, Test Example 2 [1, 4]: D (79-50)
Insecticidal effect, Test Example 1 [2, 9]: A (100)
Insecticidal effect, Test Example 3 [3, 5]: A (100)

Cc1cc(C(F)(F)C(F)(F)C(F)(F)F)ccc1NC(=O)c1c(I)cccc1C(=O)NC(C)C [compound 438]
Insecticidal effect, Test Example 2 [1, 4]: B (99-90)
Insecticidal effect, Test Example 1 [2, 9]: A (100)
Insecticidal effect, Test Example 3 [3, 5]: A (100)

Cc1cc(C(F)(F)C(F)(F)F)ccc1NC(=O)c1cccc(I)c1C(=O)NC(C)(C)C [compound 942]
Insecticidal effect, Test Example 2 [1, 6]: A (100)
Insecticidal effect, Test Example 1 [2, 7]: A (100)
Insecticidal effect, Test Example 3 [3, 8]: A (100)

Cc1cc(Cl)ccc1NC(=O)c1ccccc1C(=O)NC(C)(C)C [compound 927]
Insecticidal effect on common cutworm (Test Example 2), judged grade [1]: A (100)
Insecticidal effect on diamondback moth (Test Example 1), judged grade [2]: A (100)
Insecticidal effect on rice leafroller (Test Example 3), judged grade [3]: A (100)

CCC(C)NC(=O)c1c(I)cccc1C(=O)Nc1ccc(C(F)(F)C(F)(F)F)cc1Cl (stereo not drawn) [compound 1473]
Insecticidal effect (Test Example 2), judged from mortality [1, 4]: A (100)
Insecticidal effect (Test Example 1), judged from mortality [2]: A (100)
Insecticidal effect (Test Example 3), judged from mortality [3, 5]: A (100)

CC(C)NC(=O)c1c(C(=O)Nc2ccc(C(F)(C(F)(F)F)C(F)(F)F)cc2)cccc1[N+](=O)[O-] [compound 610]
Insecticidal effect on common cutworm (Test Example 2), judged grade [1]: A (100)
Insecticidal effect on diamondback moth (Test Example 1), judged grade [2]: A (100)
Insecticidal effect on rice leafroller (Test Example 3), judged grade [3]: C (89-80)

Cc1cc(OC(F)(F)C(F)C(F)(F)F)ccc1NC(=O)c1cccc(Br)c1C(=O)NC(C)C (stereo not drawn) [compound 291]
Insecticidal effect, Test Example 2 [1, 4]: A (100)
Insecticidal effect, Test Example 1 [2, 9]: A (100)
Insecticidal effect, Test Example 3 [3, 5]: A (100)

CCN(CC)C(=O)c1c(I)cccc1C(=O)Nc1ccc(C(F)(F)C(F)(F)F)cc1Cl [compound 1560]
Insecticidal effect (Test Example 2), judged from mortality [1, 4]: A (100)
Insecticidal effect (Test Example 1), judged from mortality [2]: A (100)
Insecticidal effect (Test Example 3), judged from mortality [3, 5]: A (100)

Cc1cc(OC(F)(F)C(F)F)ccc1NC(=O)c1cccc(I)c1C(=O)NC(C)(C)C [compound 1062]
Insecticidal effect, Test Example 2 [1, 6]: A (100)
Insecticidal effect, Test Example 1 [2, 7]: A (100)
Insecticidal effect, Test Example 3 [3, 8]: A (100)

CCN(CC)C(=O)c1c(I)cccc1C(=O)Nc1ccc(C(F)(F)F)cc1C [compound 1144]
Insecticidal effect, Test Example 2 [1, 6]: A (100)
Insecticidal effect, Test Example 1 [2, 7]: A (100)
Insecticidal effect, Test Example 3 [3, 8]: A (100)

CC(C)NC(=O)c1c(Br)cccc1C(=O)Nc1ccc(C(F)(F)F)cc1 [compound 261]
Insecticidal effect, Test Example 2 [1, 4]: A (100)
Insecticidal effect, Test Example 1 [2, 9]: A (100)
Insecticidal effect, Test Example 3 [3, 5]: D (79-50)

Cc1ccc(Cl)cc1NC(=O)c1cccc(I)c1C(=O)NC(C)C [compound 363]
Insecticidal effect, Test Example 2 [1, 4]: A (100)
Insecticidal effect, Test Example 1 [2, 9]: A (100)
Insecticidal effect, Test Example 3 [3, 5]: A (100)

CC(C)(C)NC(=O)c1c(Cl)cccc1C(=O)Nc1ccc(C(F)(F)C(F)(F)F)cc1 [compound 1447]
Insecticidal effect (Test Example 2), judged from mortality [1, 4]: A (100)
Insecticidal effect (Test Example 1), judged from mortality [2]: A (100)
Insecticidal effect (Test Example 3), judged from mortality [3, 5]: A (100)

Cc1cc(OC(F)F)c(Cl)cc1NC(=O)c1cccc(I)c1C(=O)NC(C)C [compound 396]
Insecticidal effect, Test Example 2 [1, 4]: A (100)
Insecticidal effect, Test Example 1 [2, 9]: A (100)
Insecticidal effect, Test Example 3 [3, 5]: A (100)

Cc1cc(Oc2ccc(C(F)(F)F)cn2)ccc1NC(=O)c1cccc(Br)c1C(=O)NC(C)C [compound 299]
Insecticidal effect, Test Example 2 [1, 4]: A (100)
Insecticidal effect, Test Example 1 [2, 9]: A (100)
Insecticidal effect, Test Example 3 [3, 5]: A (100)

Cc1cc(OC(F)F)ccc1NC(=O)c1cccc(Cl)c1C(=O)NC(C)(C)C [compound 1019]
Insecticidal effect, Test Example 2 [1, 6]: A (100)
Insecticidal effect, Test Example 1 [2, 7]: A (100)
Insecticidal effect, Test Example 3 [3, 8]: A (100)

CCOP(=O)(OCC)c1ccc(NC(=O)c2cccc(Cl)c2C(=O)NC(C)C)c(C)c1 [compound 161]
Insecticidal effect, Test Example 2 [1, 4]: D (79-50)
Insecticidal effect, Test Example 1 [2, 9]: A (100)
Insecticidal effect, Test Example 3 [3, 5]: A (100)

Cc1cc(OC(F)F)ccc1NC(=O)c1cccc(I)c1C(=O)NC1CC1 [compound 1452]
Insecticidal effect (Test Example 2), judged from mortality [1, 4]: A (100)
Insecticidal effect (Test Example 1), judged from mortality [2]: A (100)
Insecticidal effect (Test Example 3), judged from mortality [3, 5]: A (100)

Cc1cc(C(F)(F)C(F)(F)F)ccc1NC(=O)c1cccc(Cl)c1C(=O)NCc1cccc(Cl)c1 [compound 1335]
Insecticidal effect, Test Example 2 [1, 6]: C (89-80)
Insecticidal effect, Test Example 1 [2, 7]: A (100)
Insecticidal effect, Test Example 3 [3, 8]: A (100)
